Here are results for two compounds from patent US10519211B2, “Compounds as peptidic GLP1/glucagon/GIP receptor agonists” (SANOFI, priority 2016, dated 2019).

SMILES strings stand for the structures. Numbered stars: 1 amine (or outer) side, 2 acyl side, 3 side chain; on linkers, the order of the positions; unused ones are H or OH. Square brackets hold non-standard residues; d marks the D form. Side chains are listed from the residue outwards. Peptide text beside a SMILES is read from it. * marks the point of attachment. γGlu = O=C(O)[C@H](CCC(=O)[*:2])N[*:1]; Palmitoyl = CCCCCCCCCCCCCCCC(=O)*; Aib = CC(C)(N)C(=O)O

In the assay the test system is female diet-induced obese (DIO) C57BL/6NHsd mice. Kind of assay: Acute and chronic effects after subcutaneous treatment in female diet-induced obese (DIO) mice. The class given is in vivo, mouse. The note with it: for Plasma insulin concentrations compared to DIO vehicle / Plasma total cholesterol concentrations compared to DIO vehicle: day 28; for 24 hour blood glucose profile following first treatment: 30 μg/kg s.c., day 1, fed DIO mice, vs DIO control; for Body mass change / Whole body fat mass change / Terminal liver mass (g) / Terminal plasma alanine aminotransferase (U/L) / Terminal plasma insulin (U/L) / Terminal plasma total cholesterol (mmol/L): twice-daily 30 μg/kg s.c.; for Body mass change: mean ± SEM; for Whole body fat mass change: QNMR predose vs day 26, mean ± SEM; for Terminal liver mass (g) / Terminal plasma alanine aminotransferase (U/L) / Terminal plasma insulin (U/L) / Terminal plasma total cholesterol (mmol/L): day 28, mean ± SEM. As to the method:
Female C57BL/6NHsd mice were ordered group housed from Envigo RMS Inc., shipped group housed and remained group housed with shipped cage mates in shoebox caging with wood chip bedding until day 38 of the predose phase. At the study start mice were between 25-26 weeks old.
Mice were housed under vivarium conditions that included a 12 h light/dark cycle (light phase 04:00 AM-4:00 PM), room temperatures between 23-26° C. and a relative humidity between 30-70%. All animals had free access to water and a high fat diet (TD97366) for 16 weeks prior to pharmacological intervention (dosing phase). Feed was replaced with fresh feed weekly until and for the last time on day 38 of the predose phase. During the subsequent dosing phase, approximately 50% of the remaining feed were removed, replaced with fresh feed, and pellets were mixed evenly once per week.
On predose day 38, obese DIO mice were assigned to treatment groups (n=8) to match mean body masses between all DIO groups. An age-matched group with ad libitum access to a rodent maintenance diet (Teklad Global Diets Rodent 2014, pelleted) was included in the study as a lean control group. In the predosing phase from day 32 through 38, all study animals were treated with vehicle (Phosphate Buffered Saline, PBS, Gibco, without CaCl2 and MgCl2) once daily (s.c. approximately 0.2 mL/mouse).
On day 37 of the predose phase, the test article was diluted with PBS to a concentration of 100 μg/mL and aliquots of this stock solution were stored at approximately ≤−60° C. Stock aliquots were thawed for weekly use and thereafter stored in a refrigerator at approximately 4° C. The injected test article solution was prepared fresh once on each dosing day by diluting stock solution with PBS to achieve the desired concentration.
Mice were treated twice daily with a s.c. injection of PBS-vehicle or the test article for 28 days. The morning dosing was initiated and completed between 06:00 and 07:30 AM and the afternoon dosing between 2:00 and 3:30 PM. On day 28 of the dosing phase only the morning dose was administered. The applied volume was 5 ml/kg and the dose was adjusted to the most recent body mass recording of each individual.
Animals had unlimited access to water and feed during the experiment. On day 1 of the dosing phase approximately 5 μL of blood were collected via tail clips at hour 0, prior to the first s.c. dose of PBS-vehicle or test-article as well as 1, 2, 3, 4, 6, and 24 hours post-dose. Animals received the second s.c. dose of PBS-vehicle or test-article 8 hours after the first dose. The 24 hour blood collection of the blood glucose profile was performed prior to dosing on day 2. Glucose measurements were performed in whole blood and in duplicate or triplicate using Aviva glucometers.
Body mass was measured daily approximately between 06:00-07:30 AM from day 32 through 38 of the predosing phase and throughout the 28 days of the dosing phase. During the dosing phase mice were treated twice daily with either a s.c. injection of PBS-vehicle or test article.
To determine whole body fat mass Quantitative Nuclear Magnetic Resonance (QNMR) measurements were performed on predosing day 37 and on day 26 of the dosing phase. During the dosing phase mice were treated twice daily with either a s.c. injection of PBS-vehicle or test article.
On day 28 blood was collected prior to any other inlife activities for determination of plasma insulin concentrations. Then the morning dose was administered and necropsy was performed 4 hours post-dose. For this purpose animals were anesthetized with isoflurane and blood was collected by orbital bleeding.
On day 28 and 4 hours after the morning dose, blood was collected from mice under isoflurane anesthesia as described above. Then mice were killed and livers were collected and weighed.
Data are depicted as means±SEM. […] A One-Way ANOVA and Tukey Test were used for pairwise multiple comparisons of all groups (n=8/group, deviations from group size are indicated). […]

[1] abbreviates: 30 μg/kg s.c. twice daily, 28 days, in words.
Setting [2] is: 30 μg/kg s.c. twice daily, in words.

Regarding `CCCCCCCCCCCCCCCC(=O)N[C@@H](CCC(=O)N[C@@H](CCC(=O)NCCCC[C@H](NC(=O)[C@H](CC(C)C)NC(=O)[C@H](CCCCN)NC(=O)[C@H](CO)NC(=O)[C@H](CC(C)C)NC(=O)[C@H](CC(=O)O)NC(=O)[C@H](CO)NC(=O)[C@@H](NC(=O)[C@H](Cc1ccccc1)NC(=O)[C@@H](NC(=O)CNC(=O)[C@H](CCC(N)=O)NC(=O)C(C)(C)NC(=O)[C@@H](N)Cc1c[nH]cn1)[C@@H](C)O)[C@@H](C)O)C(=O)N[C@@H](CCC(=O)O)C(=O)N[C@@H](CCCCN)C(=O)N[C@@H](CCC(N)=O)C(=O)N[C@@H](CCCNC(=N)N)C(=O)N[C@@H](CCC(N)=O)C(=O)NC(C)(C)C(=O)N[C@@H](CCC(=O)O)C(=O)N[C@@H](Cc1ccccc1)C(=O)N[C@H](C(=O)N[C@@H](CCC(=O)O)C(=O)N[C@@H](Cc1c[nH]c2ccccc12)C(=O)N[C@@H](CC(C)C)C(=O)N[C@@H](CCCCN)C(=O)N[C@@H](C)C(=O)N[C@H](C)C(=O)NCC(=O)N1CCC[C@H]1C(=O)N1CCC[C@H]1C(=O)N[C@@H](CO)C(=O)NC(C)(C)C(=O)N[C@@H](CCCCN)C(=O)N1CCC[C@H]1C(=O)N1CCC[C@H]1C(=O)N1CCC[C@H]1C(=O)N[C@@H](CCCCN)C(N)=O)[C@@H](C)CC)C(=O)O)C(=O)O` [SEQ ID NO: 7, H-Aib-Q-G-T-F-T-S-D-L-S-K-L-K[gGlu-gGlu-Palm]-E-K-Q-R-Q-Aib-E-F-I-E-W-L-K-A-dAla-G-P-P-S-Aib-K-P-P-P-K-NH2] (H-H[Aib]QGTFTSDLSKLK([γGlu-γGlu-Palmitoyl])EKQRQ[Aib]EFIEWLKA[dA]GPPS[Aib]KPPPK-NH2), under setting [1], the “Body mass compared to the DIO-Vehicle group” value is given as “statistically significant decrease in body mass” and the “Whole body fat mass compared to the DIO-Vehicle group” value was “statistically significantly reduction in whole body fat mass”. In addition, under setting [2], the “Plasma insulin concentrations compared to DIO vehicle” value was “statistically significant reduction in plasma insulin concentrations”, the “Plasma total cholesterol concentrations compared to DIO vehicle” value is recorded as “statistically significant reduction in plasma total cholesterol concentrations”, the “Liver mass on day 28 compared to DIO animals treated with vehicle” value is “statistically significantly lower liver mass” and the “Plasma alanine aminotransferase concentration on day 28 compared to DIO vehicle” value is “statistically significantly lower plasma alanine aminotransferase concentration”. Moreover, under “in words”, the “24 hour blood glucose profile following first treatment” value was “decrease in blood glucose concentrations below concentrations observed in DIO control mice”. Besides, the “Body mass change” value (Table 9, 28 days) was -5.58 ± 0.60 g. Further, under “Table 9”, the “Whole body fat mass change” value is -4.46 ± 0.50 g, the “Terminal liver mass (g)” value is on record as “+1.14 ± 0.04 g”, the “Terminal plasma alanine aminotransferase (U/L)” value is “+47.63 ± 6.76 U/L” and the “Terminal plasma insulin (U/L)” value was “+58.04 ± 6.33 U/L”. The “Terminal plasma total cholesterol (mmol/L)” value (Table 9) is listed as “+4.19 ± 0.15 mmol/L”.

`CCCCCCCCCCCCCCCC(=O)N[C@@H](CCC(=O)N[C@@H](CCC(=O)NCCCC[C@H](NC(=O)[C@H](CC(C)C)NC(=O)[C@H](CCCCN)NC(=O)[C@H](CO)NC(=O)[C@H](CC(C)C)NC(=O)[C@H](CC(=O)O)NC(=O)[C@H](CO)NC(=O)[C@@H](NC(=O)[C@H](Cc1ccccc1)NC(=O)[C@@H](NC(=O)CNC(=O)[C@H](CCC(N)=O)NC(=O)C(C)(C)NC(=O)[C@@H](N)Cc1c[nH]cn1)[C@@H](C)O)[C@@H](C)O)C(=O)N[C@@H](CCC(=O)O)C(=O)N[C@@H](CCC(=O)O)C(=O)N[C@@H](CCC(N)=O)C(=O)N[C@@H](CCCNC(=N)N)C(=O)N[C@@H](CCC(N)=O)C(=O)NC(C)(C)C(=O)N[C@@H](CCC(=O)O)C(=O)N[C@@H](Cc1ccccc1)C(=O)N[C@H](C(=O)N[C@@H](CCC(=O)O)C(=O)N[C@@H](Cc1c[nH]c2ccccc12)C(=O)N[C@@H](CC(C)C)C(=O)N[C@@H](CCCCN)C(=O)N[C@@H](C)C(=O)N[C@H](C)C(=O)NCC(=O)N1CCC[C@H]1C(=O)N1CCC[C@H]1C(=O)N[C@@H](CO)C(=O)NC(C)(C)C(=O)N[C@@H](CCCCN)C(=O)N1CCC[C@H]1C(=O)N1CCC[C@H]1C(=O)N1CCC[C@H]1C(=O)N[C@@H](CCCCN)C(N)=O)[C@@H](C)CC)C(=O)O)C(=O)O` [SEQ ID NO: 10, H-Aib-Q-G-T-F-T-S-D-L-S-K-L-K[gGlu-gGlu-Palm]-E-E-Q-R-Q-Aib-E-F-I-E-W-L-K-A-dAla-G-P-P-S-Aib-K-P-P-P-K-NH2] (H-H[Aib]QGTFTSDLSKLK([γGlu-γGlu-Palmitoyl])EEQRQ[Aib]EFIEWLKA[dA]GPPS[Aib]KPPPK-NH2): under setting [1], the “Body mass compared to the DIO-Vehicle group” value was “statistically significant decrease in body mass”. For the same compound, under setting [2], the “Plasma insulin concentrations compared to DIO vehicle” value is “statistically significant reduction in plasma insulin concentrations”, the “Plasma total cholesterol concentrations compared to DIO vehicle” value is recorded as “statistically significant reduction in plasma total cholesterol concentrations”, the “Liver mass on day 28 compared to DIO animals treated with vehicle” value was “statistically significantly lower liver mass” and the “Plasma alanine aminotransferase concentration on day 28 compared to DIO vehicle” value is “statistically significantly lower plasma alanine aminotransferase concentration”. The “24 hour blood glucose profile following first treatment” value (in words) is on record as “decrease in blood glucose concentrations below concentrations observed in DIO control mice”. Further, the “Body mass change” value (Table 11, 28 days) was -7.14 ± 0.64 g. Where the note is “Table 11”, the “Whole body fat mass change” value is -6.48 ± 0.90 g, the “Terminal liver mass (g)” value is “+1.07 ± 0.04 g”, the “Terminal plasma alanine aminotransferase (U/L)” value is “+56.75 ± 4.65 U/L” and the “Terminal plasma insulin (U/L)” value was “+35.81 ± 2.79 U/L”. In addition, the “Terminal plasma total cholesterol (mmol/L)” value (Table 11) was “+4.28 ± 0.15 mmol/L”.
